From patent US5430043A, “Platelet aggregation inhibitors” (G. D. Searle & Co., priority 1993, dated 1995)
pIC50: −log10 of the molar value. Counter-ions that a name gives are not always drawn.

Key:
[1] = tested on: Platelet aggregation in PRP (dog); assay: In-Vitro Platelet Aggregation in PRP (Dog), collagen-induced; assay type: cell-based; details: collagen 33 μg/ml final
Experimental: In-Vitro Platelet Aggregation in PRP--(Dog)
Healthy male or female dogs were fasted for 8 hours prior to drawing blood; then 60 ml whole blood was collected using a butterfly needle and 60 cc plastic syringe with 6 ml of 0,129 M buffered sodium citrate (3.8%) (drawn from a minimum of 3 dogs and blood was pooled). The syringe was rotated carefully as blood was drawn to mix the citrate. Platelet-rich plasma (PRP) was prepared by centrifugation at 975×g for 3.17 minutes at room temperature, allowing the centrifuge to coast to a stop without braking. The PRP was removed from the blood with a plastic pipette and placed in a plastic capped 50 ml Corning conical sterile centrifuge tube which was held at room temperature. Platelet poor plasma (PPP) was prepared by centrifuging the remaining blood at 2000×g for 15 minutes at room temperature allowing the centrifuge to coast to a stop without braking. The platelet count in the PRP was routinely 2-4×10^8 platelets per ml. 400 μl of the PRP preparation and 50 μl of the compound to be tested or saline were preincubated for 2 minutes at 37° C. in a BioData aggregometer (BioData, Horsham, Pa.). 50 μl of collagen (diluted 1:3 with 5% dextrose and water solution, 33 μg/ml final concentration, equine tendon, Chronolog, Havertown, Pa.) was added to the cuvettes and the aggregation was monitored for 3 minutes. All compounds are tested in duplicate. Results are calculated as follows: [formula]
The assay results for the compounds of the present invention and their median inhibitory concentrations (IC50) are recorded in Tables I-III.

[2] = tested on: collagen-induced platelet aggregation; assay: Oral (IG) administration of compound (ester) to dogs; inhibition of collagen-induced platelet aggregation; assay type: in vivo; details: dog
Experimental: Oral Administration of Compound
Dogs (n=2) were weighed and two control blood samples (2×2 ml) were drawn via venipuncture from the cephalic vein. Blood was centrifuged at 266×g for 6 minutes to prepare PRP. Percent aggregation prior to compound administration (baseline) was established by adding 50 μl of collagen to 450 μl of PRP and measuring aggregation for 4 minutes. Compound (in the ester form) was administered orally (single dose) by gelatin capsule. Blood samples (2×2 ml) were drawn at selected time intervals after dosing. Inhibition of collagen-induced platelet aggregation was determined by comparing aggregation responses in the samples containing compound with the responses of samples before compound administration (baseline). The remaining blood was centrifuged for 2 minutes at 12,000 ×g to prepare PPP for determination of concentration of compound in the plasma samples by bioassay (see below).

[3] = tested on: collagen-induced platelet aggregation; assay: I.V. compound (acid) administration to dogs; inhibition of collagen-induced platelet aggregation; assay type: in vivo; details: dog, 1 mg/kg
Experimental: I.V. Compound Administration
Dogs were placed in a dog sling. Two control blood samples (2×2 ml) were collected and PRP was prepared and percent aggregation was determined to establish a baseline as stated above. Compound (in the acid form) in 4 ml of saline/water (50:50) was injected into the cephalic vein over one minute with a syringe connected to a 23 g butterfly infusion set. Blood samples (2×2 ml) were drawn at 5 minute intervals after dosing for the first 15 minutes, 15 minute intervals until 60 minutes, 30 minute intervals until 2 hours, hourly until ~6 hours, again at 24 hours or until baseline aggregation was reached. PRP was prepared for aggregation studies as previously described. PPP was prepared for determination of concentration of compound by bioassay (see below).

[4] = Canis lupus familiaris, Platelet

Work on `COC(=O)CC(CC(=O)O)NC(=O)CN1CCN(c2ccc(C(=N)N)cc2)C1=O` (racemic) [Example 14, (±)Methylhydrogen3-[[[[1-[4-(aminoiminomethyl)phenyl]-4,5-dihydro-2(3H)-oxo-1H-imidazol-3-yl]methyl]carbonyl]amino]pentanedioate] yielded a pIC50 [1, 4] of 6.74.

`C=CC(CC(=O)OCC)NC(=O)Cn1ccn(-c2ccc(C(=N)N)cc2)c1=O` (stereo in doubt) [Example 11, Ethyl 3-[[[[1-[4-(aminoiminomethyl)phenyl]-2(3H)-oxo-1H-imidazol-3-yl]methyl]carbonyl]amino]pent-4(3S)-enoate trifluoroacetate] was tested, and the “Hours duration (IG - ester)” value ([2]; 5 mg/kg) was 24 h, the “% inhibition (IG - ester)” value ([2]; 5 mg/kg, 24 hr) was 35% and the “Max % inhibition (IG - ester)” value ([2]; 5 mg/kg, max @ 3 hours) was 71%.

For `C=CC(CC(=O)O)NC(=O)Cn1ccn(-c2ccc(C(=N)N)cc2)c1=O` (stereo in doubt) [Example 12, 3-[[[[1-[4-(aminoiminomethyl)phenyl]-2(3H)-oxo-1H-imidazol-3-yl]methyl]carbonyl]amino]-4(3S)-pentenoic acid trifluoroacetate], the “Hours duration (IV - acid)” value [3] was 6 h, the “% inhibition (IV - acid)” value ([3]; 6 hr) was 54% and the pIC50 [1, 4] was 6.19.

`N=C(N)c1ccc(-n2ccn(CC(=O)NCCC(=O)O)c2=O)cc1` [Example 3, 3-[[[[1-[4-(aminoiminomethyl)phenyl]-2(3H)-oxo-1H-imidazol-3-yl]methyl]carbonyl]amino]propanoic acid, trifluoroacetate] showed a pIC50 [1, 4] of 5.70.

Molecule `N=C(N)c1ccc(-n2ccn(CC(=O)NCCCC(=O)O)c2=O)cc1` [Example 4, 4-[[[[1-[4-(aminoiminomethyl)phenyl]-2(3H)-oxo-1H-imidazol-3-yl]methyl]carbonyl]amino]butanoic acid trifluoroacetate] has an inhibition at 1 µM [1, 4] of 0%.

With `N=C(N)c1ccc(N2CCN(CC(=O)NCCC(=O)O)C2=O)cc1` [Example 5, 3-[[[[1-[4-(aminoiminomethyl)phenyl]-4,5-dihydro-2(3H]-oxo-1H-imidazol-3-yl]methyl]carbonyl]amino]propanoic acid, trifluoroacetate] the “Hours duration (IV - acid)” value [3] was 24 h, the “% inhibition (IV - acid)” value ([3]; 24 hr) was 31% and the pIC50 [1, 4] was 6.72.

In the case of `N=C(N)c1ccc(N2CCN(CC(=O)NCCCC(=O)O)C2=O)cc1` [Example 7, 4-[[[[1-[4-(Aminoiminomethyl)phenyl]-4,5-dihydro-2(3H)-oxo-1H-imidazol-3-yl]methyl]carbonyl]amino]butanoic acid], the pIC50 [1, 4] was 5.96.

`CCOC(=O)CCNC(=O)CN1CCN(c2ccc(C(=N)N)cc2)C1=O` [Example 8, Ethyl 3-[[[[1-[4-(aminoiminomethyl)phenyl]-4,5-dihydro-2(3H)-oxo-1H-imidazol-3-yl]methyl]carbonyl]amino]propanoate] was tested, and the “Hours duration (IG - ester)” value ([2]; 2.5 mg/kg) was 3.1 h and the “% inhibition (IG - ester)” value ([2]; 2.5 mg/kg, 3.1 hr) was 16%.

`CCOC(=O)CC(C)NC(=O)Cn1ccn(-c2ccc(C(=N)N)cc2)c1=O` (stereo not shown) [Example 9, Ethyl 3-[[[[1-[4-(aminoiminomethyl)phenyl]-2(3H)-oxo-1H-imidazol-3-yl]methyl]carbonyl]amino]butanoate trifluoroacetate] was tested, and the “Hours duration (IG - ester)” value ([2]; 10 mg/kg) was 4.5 h and the “% inhibition (IG - ester)” value ([2]; 10 mg/kg, 4.5 hr) was 33%.

In the case of `CC(CC(=O)O)NC(=O)Cn1ccn(-c2ccc(C(=N)N)cc2)c1=O` (stereo not shown) [Example 10, 3-[[[1-[4-(aminoiminomethyl)phenyl]-2(3H)-oxo-1H-imidazol-3-yl]methyl]carbonyl]amino]butanoic acid trifluoroacetate], the pIC50 [1, 4] was 6.21.

In the case of `COC(=O)CC(CC(=O)OC)NC(=O)CN1CCN(c2ccc(C(=N)N)cc2)C1=O` [Example 13, Dimethyl 3-[[[[1-[4-(aminoiminomethyl)phenyl]-4,5-dihydro-2(3H)-oxo-1H-imidazol-3-yl]methyl]carbonyl]amino]pentanedioate], the “Hours duration (IG - ester)” value ([2]; 5 mg/kg) was 24 h, the “% inhibition (IG - ester)” value ([2]; 5 mg/kg, 24 hr) was 14% and the “Max % inhibition (IG - ester)” value ([2]; 5 mg/kg, max @ 6 hours) was 63%.

`N=C(N)c1ccc(-n2ccn(CCC(=O)NCCC(=O)O)c2=O)cc1` [Example 16, 3-[[[[1-[4-(aminoiminomethyl)phenyl]-2(3H)-oxo-1H-imidazol-3-yl]ethyl]carbonyl]amino]propanoic acid] was tested, and the pIC50 [1, 4] was 6.47.

With `CCOC(=O)CC(NC(=O)Cn1ccn(-c2ccc(C(=N)N)cc2)c1=O)c1ccoc1` (stereo not drawn) [Example 19, Ethyl β-[[[[1-[4-(aminoiminomethyl)phenyl]-2(3H)-oxo-1H-imidazol-3-yl]-methyl]carbonyl]amino]-3-furanpropanoate trifluoroacetate] the “Hours duration (IG - ester)” value ([2]; 10 mg/kg) was 24 h, the “% inhibition (IG - ester)” value ([2]; 10 mg/kg, 24 hr) was 28% and the “Max % inhibition (IG - ester)” value ([2]; 10 mg/kg, max @ 6 hours) was 85%.

`N=C(N)c1ccc(-n2ccn(CC(=O)NC(CC(=O)O)c3ccoc3)c2=O)cc1` (stereo not drawn) [Example 20, β-[[[[1-[4-(aminoiminomethyl)phenyl]-2(3H)-oxo-1H-imidazol-3-yl]methyl]carbonyl]amino]-3-furanpropanoic acid trifluoroacetate] showed a pIC50 [1, 4] of 6.15.

`CCOC(=O)CC(NC(=O)Cn1ccn(-c2ccc(C(=N)N)cc2)c1=O)c1cccnc1` (stereo not drawn) [Example 21, Ethyl β-[[[[1-[4-(aminoiminomethyl)phenyl]-2(3H)-oxo-1H-imidazol-3-yl]methyl]carbonyl]amino]-3-pyridinepropanoate] was tested, and the “Hours duration (IG - ester)” value ([2]; 10 mg/kg) was 24 h and the “% inhibition (IG - ester)” value ([2]; 10 mg/kg, 24 hr) was 43%.

In the case of `N=C(N)c1ccc(-n2ccn(CC(=O)NC(CC(=O)O)c3cccnc3)c2=O)cc1` (stereo not drawn) [Example 22, β-[[[[1-[4-(aminoiminomethyl)phenyl]-2(3H)-oxo-1H-imidazol-3-yl]methyl]carbonyl]amino]-3-pyridinepropanoic acid], the “Hours duration (IV - acid)” value [3] was 24 h, the “% inhibition (IV - acid)” value ([3]; 24 hr) was 40% and the pIC50 [1, 4] was 6.77.

With `CCOC(=O)C[C@H](NC(=O)CN1CCN(c2ccc(C(=N)N)cc2)C1=O)c1cccnc1` [Example 23, Ethyl β-[[[[1-[4-(aminoiminomethyl]phenyl]-4,5-dihydro-2(3H)-oxo-1H-imidazol-3-yl]methyl]carbonyl]amino]-3(S)-pyridinepropanoate] the “Hours duration (IG - ester)” value ([2]; 5 mg/kg) was 24 h and the “% inhibition (IG - ester)” value ([2]; 5 mg/kg, 24 hr) was 88%.

For `N=C(N)c1ccc(N2CCCN(CC(=O)NCCC(=O)O)C2=O)cc1` [Example 26, 3-[[[[1-[4-(Aminoiminomethyl)phenyl]-1,4,5,6-tetrahydro-2(3H)-oxopyrimidin-3-yl]methyl]carbonyl]amino]propanoic acid, trifluoroacetate], the inhibition at 1 µM [1, 4] was 18%.

For “β-[[[[4-(aminoiminomethyl)phenyl]-4,5-dihydro-2(3H)-oxo-1H-imidazol-3- yl]methyl]carbonyl]amino]-3-pyridinepropanoic acid [Example 24]”, the “Hours duration (IV - acid)” value [3] was 27 h, the “% inhibition (IV - acid)” value ([3]; 27 hr) was 98% and the pIC50 [1] was 7.10.
